For ten compounds, EPSA results are on record in patent publication US20260022143A1, “Cyclic Peptide Inhibitors of IL-23” (JANSSEN PHARMACEUTICA NV, priority 2022, published 2026).

The structures appear in SMILES notation. Starred links: 1 amine or outer side, 2 acyl side, 3 side chain; linkers in the order of their positions; H or OH if unused. Positions of bridges follow the written chain, without caps; N, C: chain ends. Non-standard residues stand in square brackets, D forms with d. Residues, ends and D or L forms follow the SMILES beside them. Groups on a side chain read outwards from the residue. *: point of attachment. X56 = CCCCCCCCCCCC(=O)NCCOCCOCC(=O)NCCOCCOCC(=O)NCC[N+](C)(C)CC(=O)*; X51 = C[N+](C)(C)CCCc1cn(-c2ccc(C[C@H](N[*:1])C(=O)[*:2])cc2)nn1; Me3N+(CH2)2O(CH2)2O(CH2)2CO = C[N+](C)(C)CCOCCOCCC(=O)*; CH2CH2OCH2CH2OCH2CH2NMe3+ = C[N+](C)(C)CCOCCOCC*; Trp(7-Me) = Cc1cccc2c(C[C@H](N)C(=O)O)c[nH]c12; γGlu = O=C(O)[C@H](CCC(=O)[*:2])N[*:1]; 2Nal = N[C@@H](Cc1ccc2ccccc2c1)C(=O)O; 3Pal = N[C@@H](Cc1cccnc1)C(=O)O; Myristoyl = CCCCCCCCCCCCCC(=O)*; Lys(Me) = CNCCCC[C@H](N)C(=O)O; Agb = N=C(N)NCC[C@H](N)C(=O)O; NMeK = CN[C@@H](CCCCN)C(=O)O; Pen = CC(C)(S)[C@H](N)C(=O)O; X31 = N=C(N)NCCOCCC(=O)*; Thp = NC1(C(=O)O)CCOCC1; X3 = C[N+](C)(C)CCCCC*; X76 = N=C(N)NCCOCCOCC*; AEEA = NCCOCCOCC(=O)O; Sar = CNCC(=O)O

This data set is described as follows: Exposed Polar Surface Area (EPSA). The format is physicochemical. The note with it: SFC on Chirex 3014 column; sample 1 mM DMSO stock; read-out: EPSA. Summed up: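 Retention-based polarity: supercritical CO2 with 20 mM ammonium formate in MeOH (5–60%, 20%/min), Chirex 3014 column, 35 °C. Calibrated against 8 standards to give EPSA (Å^2); each sample measured twice.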
For `CCCCCCCCCCCCCC(=O)N[C@@H](CCC(=O)NCCOCCOCC(=O)NCCOCCOCC(=O)NCCCC[C@@H]1NC(=O)[C@H](Cc2c[nH]c3c(C)cccc23)NC(=O)[C@H]([C@@H](C)O)NC(=O)[C@H](CCCCNC(=O)COCCOCCNC(=O)COCCOCCNC(=O)CC[C@H](NC(=O)CCCCCCCCCCCCC)C(=O)O)NC(=O)[C@@H](NC(=O)CCOCCOCC[N+](C)(C)C)C(C)(C)SSC(C)(C)[C@@H](C(=O)N[C@@H](Cc2ccc(OCCCCC[N+](C)(C)C)cc2)C(=O)N[C@@H](Cc2ccc3ccccc3c2)C(=O)NC2(C(=O)N[C@@H](CCCCN(C)C(C)=O)C(=O)N[C@@H](CC(N)=O)C(=O)N[C@@H](Cc3cccnc3)C(=O)N(C)CC(=O)N(C)C)CCOCC2)NC1=O)C(=O)O` [compound 396, cPEG3aCO-Pen(3)-K(PEG2PEG2gEC14)-T-7MeW-K(PEG2PEG2gEC14)-Pen(3)-TMAPF-2Nal-THP-K(NMeAc)-N-3Pya-Sar-CON(Me)2] ({Me3N+(CH2)2O(CH2)2O(CH2)2CO}-[Pen]K([AEEA-AEEA-γGlu-Myristoyl])T[Trp(7-Me)]K([AEEA-AEEA-γGlu-Myristoyl])[Pen]Y(X3)[2Nal][Thp][Lys(Me)](Ac)N[3Pal][Sar]-NMe2; disulfide 1-6), the EPSA came to 172 A^2.
Consider `CCCCCCCCCCCCCC(=O)N[C@@H](CCC(=O)NCCOCCOCC(=O)NCCOCCOCC(=O)NCCCC[C@@H]1NC(=O)[C@@H](NC(=O)CCOCCOCC[N+](C)(C)C)C(C)(C)SSC(C)(C)[C@@H](C(=O)N[C@@H](Cc2ccc(OCCCCC[N+](C)(C)C)cc2)C(=O)N[C@@H](Cc2ccc3ccccc3c2)C(=O)NC2(C(=O)N[C@@H](CCCCNC(=O)COCCOCCNC(=O)COCCOCCNC(=O)CC[C@H](NC(=O)CCCCCCCCCCCCC)C(=O)O)C(=O)N[C@@H](CC(N)=O)C(=O)N[C@@H](Cc3cccnc3)C(=O)N(C)CC(=O)N(C)C)CCOCC2)NC(=O)[C@H](CCCCN(C)C(C)=O)NC(=O)[C@H](Cc2c[nH]c3c(C)cccc23)NC(=O)[C@H]([C@@H](C)O)NC1=O)C(=O)O` [compound 398, cPEG3aCO-Pen(3)-K(PEG2PEG2gEC14)-T-7MeW-K(NMeAc)-Pen(3)-TMAPF-2Nal-THP-K(PEG2PEG2gEC14)-N-3Pya-Sar-CON(Me)2] ({Me3N+(CH2)2O(CH2)2O(CH2)2CO}-[Pen]K([AEEA-AEEA-γGlu-Myristoyl])T[Trp(7-Me)][Lys(Me)](Ac)[Pen]Y(X3)[2Nal][Thp]K([AEEA-AEEA-γGlu-Myristoyl])N[3Pal][Sar]-NMe2; disulfide 1-6), for which the EPSA turned out to be 168 A^2.
The value for `CCCCCCCCCCCCCC(=O)N[C@@H](CCC(=O)NCCOCCOCC(=O)NCCOCCOCC(=O)NCCCC[C@@H]1NC(=O)[C@H](Cc2c[nH]c3c(C)cccc23)NC(=O)[C@H]([C@@H](C)O)NC(=O)[C@H](CC(=O)N(C)C)NC(=O)[C@@H](NC(=O)CCOCCOCC[N+](C)(C)C)C(C)(C)SSC(C)(C)[C@@H](C(=O)N[C@@H](Cc2ccc(OCCCCC[N+](C)(C)C)cc2)C(=O)N[C@@H](Cc2ccc3ccccc3c2)C(=O)NC2(C(=O)N[C@@H](CCCCN(C)C(C)=O)C(=O)N[C@@H](CC(N)=O)C(=O)N[C@@H](Cc3cccnc3)C(=O)N(C)CC(=O)N(C)C)CCOCC2)NC1=O)C(=O)O` [compound 399, cPEG3aCO-Pen(3)-N(N(Me)2)-T-7MeW-K(PEG2PEG2gEC14)-Pen(3)-TMAPF-2Nal-THP-K(NMeAc)-N-3Pya-Sar-CON(Me)2] ({Me3N+(CH2)2O(CH2)2O(CH2)2CO}-[Pen]D(NMe2)T[Trp(7-Me)]K([AEEA-AEEA-γGlu-Myristoyl])[Pen]Y(X3)[2Nal][Thp][Lys(Me)](Ac)N[3Pal][Sar]-NMe2; disulfide 1-6) was 157 A^2; that for `CCCCCCCCCCCCCC(=O)N[C@@H](CCC(=O)NCCOCCOCC(=O)NCCOCCOCC(=O)NCCCC[C@H](NC(=O)C1(NC(=O)[C@H](Cc2ccc3ccccc3c2)NC(=O)[C@H](Cc2ccc(OCCCCC[N+](C)(C)C)cc2)NC(=O)[C@H]2NC(=O)[C@H](CCCCN(C)C(C)=O)NC(=O)[C@H](Cc3c[nH]c4c(C)cccc34)NC(=O)[C@H]([C@@H](C)O)NC(=O)[C@H](CC(=O)N(C)C)NC(=O)[C@@H](NC(=O)CCOCCOCC[N+](C)(C)C)C(C)(C)SSC2(C)C)CCOCC1)C(=O)N[C@@H](CC(N)=O)C(=O)N[C@@H](Cc1cccnc1)C(=O)N(C)CC(=O)N(C)C)C(=O)O` [compound 402, cPEG3aCO-Pen(3)-N(N(Me)2)-T-7MeW-K(NMeAc)-Pen(3)-TMAPF-2Nal-THP-K(PEG2PEG2gEC14)-N-3Pya-Sar-CON(Me)2] ({Me3N+(CH2)2O(CH2)2O(CH2)2CO}-[Pen]D(NMe2)T[Trp(7-Me)][Lys(Me)](Ac)[Pen]Y(X3)[2Nal][Thp]K([AEEA-AEEA-γGlu-Myristoyl])N[3Pal][Sar]-NMe2; disulfide 1-6) was 156 A^2; that for `CC(=O)N(C)CCCC[C@@H]1NC(=O)[C@H](Cc2c[nH]c3c(C)cccc23)NC(=O)[C@H]([C@@H](C)O)NC(=O)[C@H](CC(=O)N(C)C)NC(=O)[C@@H](NC(=O)CCOCCOCC[N+](C)(C)C)C(C)(C)SSC(C)(C)[C@@H](C(=O)N[C@@H](Cc2ccc(OCCOCCOCCNC(=N)N)cc2)C(=O)N[C@@H](Cc2ccc3ccccc3c2)C(=O)NC2(C(=O)N[C@@H](CCCCN(C)C(C)=O)C(=O)N[C@@H](CC(N)=O)C(=O)N[C@@H](Cc3cccnc3)C(=O)N(C)CC(=O)N(C)C)CCOCC2)NC1=O` [compound 405, cPEG3aCO-Pen(3)-N(N(Me)2)-T-7MeW-K(NMeAc)-Pen(3)-GPEG3F-2Nal-THP-K(NMeAc)-N-3Pya-Sar-CON(Me)2] ({Me3N+(CH2)2O(CH2)2O(CH2)2CO}-[Pen]D(NMe2)T[Trp(7-Me)][Lys(Me)](Ac)[Pen]Y(X76)[2Nal][Thp][Lys(Me)](Ac)N[3Pal][Sar]-NMe2; disulfide 1-6) was 157 A^2.
As to `CCCCCCCCCCCC(=O)NCCOCCOCC(=O)NCCOCCOCC(=O)NCC[N+](C)(C)CC(=O)NCCCC[C@@H](C(N)=O)N(C)C(=O)[C@H](Cc1cccnc1)NC(=O)[C@H](CC(N)=O)NC(=O)[C@H](CCCCN(C)C(C)=O)NC(=O)C1(NC(=O)[C@H](Cc2ccc3ccccc3c2)NC(=O)[C@H](Cc2ccc(OCCCCC[N+](C)(C)C)cc2)NC(=O)[C@H]2NC(=O)[C@H](CCCCNC(C)=O)NC(=O)[C@H](Cc3c[nH]c4c(C)cccc34)NC(=O)[C@H]([C@@H](C)O)NC(=O)[C@H](CC(=O)N(C)C)NC(=O)[C@@H](NC(=O)CCOCCOCC[N+](C)(C)C)C(C)(C)SSC2(C)C)CCOCC1` [compound 407, cPEG3aCO-Pen(3)-N(N(Me)2)-T-7MeW-K(Ac)-Pen(3)-TMAPF-2Nal-THP-K(NMeac)-N-3Pya-NMeK(SP6PEG2PEG2C12)-CONH2] ({Me3N+(CH2)2O(CH2)2O(CH2)2CO}-[Pen]D(NMe2)T[Trp(7-Me)]K(Ac)[Pen]Y(X3)[2Nal][Thp][Lys(Me)](Ac)N[3Pal][NMeK](X56)-NH2; disulfide 1-6), the EPSA was determined as 151 A^2.
For the compound `CC(=O)N[C@@H]1C(=O)N[C@@H](CCNC(=N)N)C(=O)N[C@@H]([C@@H](C)O)C(=O)N[C@@H](Cc2c[nH]c3c(C)cccc23)C(=O)N[C@@H](CCCCN(C)C(C)=O)C(=O)N[C@H](C(=O)N[C@@H](Cc2ccc(OCCOCCOCC[N+](C)(C)C)cc2)C(=O)N[C@@H](Cc2ccc3ccccc3c2)C(=O)NC2(C(=O)N[C@@H](CCCCN(C)C(C)=O)C(=O)N[C@@H](CC(N)=O)C(=O)N[C@@H](Cc3cccnc3)C(=O)N(C)CC(=O)N(C)C)CCOCC2)C(C)(C)SSC1(C)C` [compound 412] (Ac-[Pen][Agb]T[Trp(7-Me)][Lys(Me)](Ac)[Pen]Y(CH2CH2OCH2CH2OCH2CH2NMe3+)[2Nal][Thp][Lys(Me)](Ac)N[3Pal][Sar]-NMe2; disulfide 1-6), the EPSA was found to be 157 A^2.
The value for `CC(=O)N(C)CCCC[C@@H]1NC(=O)[C@H](Cc2c[nH]c3c(C)cccc23)NC(=O)[C@H]([C@@H](C)O)NC(=O)[C@H](CC(=O)N(C)C)NC(=O)[C@@H](NC(=O)CCOCCNC(=N)N)C(C)(C)SSC(C)(C)[C@@H](C(=O)N[C@@H](Cc2ccc(OCCOCCOCC[N+](C)(C)C)cc2)C(=O)N[C@@H](Cc2ccc3ccccc3c2)C(=O)NC2(C(=O)N[C@@H](CCCCN(C)C(C)=O)C(=O)N[C@@H](CC(N)=O)C(=O)N[C@@H](Cc3cccnc3)C(=O)N(C)CC(=O)N(C)C)CCOCC2)NC1=O` [compound 413, cPEG2gCO-Pen(3)-N(N(Me)2)-T-7MeW-K(NMeAc)-Pen(3)-APEG3F-2Nal-THP-K(NMeAc)-N-3Pya-Sar-CON(Me)2] (X31-[Pen]D(NMe2)T[Trp(7-Me)][Lys(Me)](Ac)[Pen]Y(CH2CH2OCH2CH2OCH2CH2NMe3+)[2Nal][Thp][Lys(Me)](Ac)N[3Pal][Sar]-NMe2; disulfide 1-6) was 154 A^2.
The value for `CC(=O)NCCCC[C@@H]1NC(=O)[C@H](Cc2c[nH]c3c(C)cccc23)NC(=O)[C@H]([C@@H](C)O)NC(=O)[C@H](CC(N)=O)NC(=O)[C@@H](NC(=O)CCOCCOCC[N+](C)(C)C)C(C)(C)SSC(C)(C)[C@@H](C(=O)N[C@@H](Cc2ccc(-n3cc(CCC[N+](C)(C)C)nn3)cc2)C(=O)N[C@@H](Cc2ccc3ccccc3c2)C(=O)NC2(C(=O)N[C@@H](CCCCNC(C)=O)C(=O)N[C@@H](CC(N)=O)C(=O)N[C@@H](Cc3cccnc3)C(=O)N(C)CC(N)=O)CCOCC2)NC1=O` [compound 420, cPEG3aCO-Pen(3)-N-T-7MeW-K(Ac)-Pen(3)-F(4TzlTMA3)-2Nal-THP-K(Ac)-N-3Pya-Sar-CONH2] ({Me3N+(CH2)2O(CH2)2O(CH2)2CO}-[Pen]NT[Trp(7-Me)]K(Ac)[Pen][X51][2Nal][Thp]K(Ac)N[3Pal][Sar]-NH2; disulfide 1-6) was 170 A^2; that for `CC(=O)NCCCC[C@@H]1NC(=O)[C@H](Cc2c[nH]c3c(C)cccc23)NC(=O)[C@H]([C@@H](C)O)NC(=O)[C@H](CC(N)=O)NC(=O)[C@@H](NC(C)=O)C(C)(C)SSC(C)(C)[C@@H](C(=O)N[C@@H](Cc2ccc(-n3cc(CCC[N+](C)(C)C)nn3)cc2)C(=O)N[C@@H](Cc2ccc3ccccc3c2)C(=O)NC2(C(=O)N[C@@H](CCCCNC(C)=O)C(=O)N[C@@H](CC(N)=O)C(=O)N[C@@H](Cc3cccnc3)C(=O)N(C)CC(N)=O)CCOCC2)NC1=O` [compound 423] (Ac-[Pen]NT[Trp(7-Me)]K(Ac)[Pen][X51][2Nal][Thp]K(Ac)N[3Pal][Sar]-NH2; disulfide 1-6) was 161 A^2.
